Assay results published in patent US8313669B2, “Liquid-crystal display” (Merck Patent Gesellschaft mit Beschränkter Haftung, priority 2007, dated 2012).

Key:
[1] = Solubility in nematic LC mixture LCT-06-441 (crystallisation on cooling); assay type: physicochemical; conditions: 5% by weight in LCT-06-441, stirred at 50° C. for ½ hour, then cooled to room temperature without stirring
Method: The solubility of compound (1) is compared with the solubility of the structurally analogous compound (A) known from the prior art (for example EP 1 498 468 A1), in which the polymerisable groups are linked in the para-position to the mesogenic group:
To this end, each compound is dissolved in the commercially available nematic LC mixture LCT-06-441 (Merck KGaA, Darmstadt) in a concentration of 5% by weight with stirring at 50° C. (½ hour) and then cooled to room temperature without stirring.

Row | SMILES | melting point [°C] | Solubility (crystallisation behaviour) [1]
1 | C=C(C)C(=O)Oc1cccc(-c2cccc(OC(=O)C(=C)C)c2)c1 [(1), 3′-(2-Methylacryloyloxy)biphenyl-3-yl 2-methylacrylate] | 70 | Crystallises out overnight at RT
2 | C=CC(=O)Oc1cccc(-c2cccc(OC(=O)C=C)c2)c1 [(2), 3′-Acryloyloxybiphenyl-3-yl acrylate] | 48 | 
3 | C=C(C)C(=O)OCCCOc1cccc(-c2cccc(OC(=O)C(=C)C)c2)c1 [(3), 3′-[3-(2-Methylacryloyloxy)propoxy]biphenyl-3-yl 2-methylacrylate] | 49 | 
4 | C=C(C)C(=O)OCCCCc1cc(-c2ccc(OC(=O)C(=C)C)cc2)ccc1OC(=O)C(=C)C [(9), 4′-(2-Methylacryloyloxy)-3-[4-(2-methylacryloyloxy)butyl]biphenyl-4-yl 2-methylacrylate] | 76 | 
5 | C=C(C)C(=O)Oc1ccc(-c2ccc(OC(=O)C(=C)C)cc2)cc1 [(A), reference compound] |  | Immediately crystallises out on cooling to RT
